Where two headings read alike, the source gives them in different places.
Legend:
KLK4 = biological target: T1, KLK4 (Homo sapiens, UniProt Q9Y5K2); assay: Selectivity screening, KLK4; format: biochemical; details: 50 μM compound, without Fe3+; read-out: percentage of inhibition KLK4
T1 construct: purchased R&D Systems

KLK11 = biological target: T2, KLK11 (Homo sapiens, UniProt Q9UBX7); assay: Selectivity screening, KLK11; format: biochemical; details: 50 μM compound, without Fe3+; read-out: percentage of inhibition KLK11
T2 construct: purchased R&D Systems
T2 sequence (Q9UBX7 54-282): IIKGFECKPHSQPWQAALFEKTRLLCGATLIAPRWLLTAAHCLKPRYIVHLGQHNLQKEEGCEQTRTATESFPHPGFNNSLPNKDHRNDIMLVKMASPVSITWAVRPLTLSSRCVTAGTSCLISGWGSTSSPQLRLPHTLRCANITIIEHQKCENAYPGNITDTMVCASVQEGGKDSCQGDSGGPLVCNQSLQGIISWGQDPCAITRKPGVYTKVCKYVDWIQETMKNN

KLK14 = biological target: T3, KLK14 (Homo sapiens, UniProt Q9P0G3); assay: Selectivity screening, KLK14; format: biochemical; details: 50 μM compound, without Fe3+; read-out: percentage of inhibition KLK14
T3 construct: purchased R&D Systems
T3 sequence (Q9P0G3 25-251): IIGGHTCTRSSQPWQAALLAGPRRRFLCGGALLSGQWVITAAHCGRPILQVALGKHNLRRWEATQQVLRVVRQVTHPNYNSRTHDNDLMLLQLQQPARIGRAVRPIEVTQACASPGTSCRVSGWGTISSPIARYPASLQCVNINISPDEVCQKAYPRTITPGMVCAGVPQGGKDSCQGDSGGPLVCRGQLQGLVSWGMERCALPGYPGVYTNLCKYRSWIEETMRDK

Cathepsin L = Cathepsin L (Homo sapiens, UniProt P07711); assay: Selectivity screening, cathepsin L; format: biochemical; details: 50 μM compound, without Fe3+; read-out: percentage of inhibition Cathepsin L
[1] = CCK8 cell viability assay, SH-SY5Y; format: cell-based; details: human, SH-SY5Y neuroblastoma cells, 25 and 50 μM, in absence or presence of iron (100 µM FAC), read-out: percentage of cell viability
Protocol: (§1) Human neuroblastoma cell line (SH-SY5Y) was purchased at American Type Culture Collection
(§2) Both cell lines were cultured in Dulbecco’s Modified Eagle Medium (DMEM)
(§3) containing 10% heat inactivated fetal bovine serum (FBS), 1% Penicillin/Streptomycin, 10 mM
(§4) Sodium Pyruvate, 2 mM L-Glutamine and 4,5 g/L D-glucose at 37°C, in a 5% humidified
(§5) incubator. Cells were cultivated until 80% confluence in flasks then were plated in 96-well
(§6) plates. For this experiment, SH-SY5Y were used at 10th passage and HMC3 at 13th. SH-SY5Y
(§7) cells were seeded at a density of 3x10^4 cells/well and HMC3 at a density of 10^4 cells/well. After
(§8) seeding, cells were left in complete medium overnight to adhere to the plates. After that, cells
(§9) were treated using inhibitors solubilized in DMSO at stock concentrations of 2,5 mM or 5 mM
(§10) with or without 10 mM iron. Iron solution was prepared by using FAC (Ferric Ammonium
(§11) Citrate, Sigma®) at stock concentration of 25 mM. After 24h of treatment, cell viability was
(§12) assessed with the CCK8 (Cell-Counting Kit 8) from TargetMol. After treatments, 10 µL of CCK8
(§13) reagent was diluted in 90 µL of complete medium and added to each well. After 3 hours at
(§14) 37°C, cell viability was assessed by absorbance measurement at 460 nm. Each viability assay
(§15) is the mean of two independent experiments performed in triplicates.
(§16) treated for 24h with the two selected concentrations of inhibitor (25 µM or 50 µM)
(§17) preincubated or not with 100 µM of FAC. The data are the mean of two independent
experiments performed in triplicates.

[2] = CCK8 cell viability assay, HMC3; format: cell-based; details: human, HMC3 microglial cells; HMC3, 24h, 25 and 50 μM, in absence or presence of iron (100 µM FAC); read-out: percentage of cell viability
Protocol: as §1, §2, §3, §4, §5, §6, §7, §8, §9, §10, §11, §12, §13, §14, §15, §16, §17
experiments performed in triplicates.

[3] = tested on: KLK's of the CNS triad (KLK1‐KLK6‐KLK8); assay: Reversibility analysis by dilution after preincubation; format: biochemical, human; details: 100-fold dilution after 15 min preincubation
Protocol: Aliquots of reaction mixtures (1 μL) were added to 99 μL of buffer containing the fluorogenic substrate (experimental conditions identical to the routine protocol used for a given enzyme). The mechanism of inhibition was determined by varying substrate and inhibitor concentrations, the type of inhibition and inhibition parameter (Ki or Ki′) are determined by Dixon's plots.

KLK5 = biological target: T4, KLK5 (Homo sapiens, UniProt Q9Y337); assay: Selectivity screening, KLK5; details: read-out: percentage of inhibition KLK5
T4 sequence (Q9Y337 67-293 limits assumed): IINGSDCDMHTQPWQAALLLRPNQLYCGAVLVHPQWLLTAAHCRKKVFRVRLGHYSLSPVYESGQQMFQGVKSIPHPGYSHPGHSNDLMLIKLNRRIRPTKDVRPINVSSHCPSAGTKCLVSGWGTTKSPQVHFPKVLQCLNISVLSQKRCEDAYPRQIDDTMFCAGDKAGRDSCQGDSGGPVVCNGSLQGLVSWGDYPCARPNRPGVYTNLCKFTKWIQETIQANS
Protocol: (§18) All enzyme stocks were stored at −20 °C and purchased from R&D Systems as proenzymes (KLK6, KLK8, KLK13) or as mature and active forms (KLK5). Activation of KLK6, KLK8, and KLK13 is performed in optimized buffers. The activation reaction is initiated by Lysyl‐Endopeptidase at 2.5 mU mL^−1 (Wako Bioproducts). The activation reaction is stopped by diluting the enzyme to 0.5 μg mL^−1 in assay buffer (50 mM Tris, 1 M Citrate, 0.05% w/v Brij‐35, pH 8) to obtain an active enzyme stock. KLK1 was purchased from R & D Systems as pro‐KLK1. Activation of KLK1 is performed in 50 mM Tris‐HCl, 10 mM CaCl2, 150 mM NaCl, 0.05% Brij‐35, pH 7.5. The activation reaction is initiated by bacterial thermolysin at 0.4 μg mL^−1 (Sigma‐Aldrich) and stopped by addition of 100 mM EDTA (Sigma‐Aldrich) to obtain an active KLK1 stock at the same concentration of 100 μg mL^−1. The activation reactions for KLK7 are initiated bacterial thermolysin at 0.4 μg mL^−1 (Sigma‐Aldrich) and stopped by addition of 100 mM EDTA (Sigma‐Aldrich) to obtain active stocks. All enzyme stocks were stored at −20 °C. H‐PFR‐AMC (KLK1), Boc‐VPR‐AMC (KLK5, KLK8, KLK13), Boc‐QAR‐AMC (KLK6, Plasmin), substrates were purchased from Bachem. MeO‐Suc‐RPY‐AMC (KLK7) substrate was purchased from AAT Bioquest. Plasmin (Sigma‐Aldrich) was purchased in mature and active form.
(§19) Compounds were screened on KLKs using a BMG Fluostar microplate reader (black 96‐well microplates). Hit compounds were screened on the selected group of enzymes using optimized concentrations and buffers (KLK1 0.8 nM, KLK4 10 nM, KLK5 0.2 nM; KLK6 1.9 nM; KLK7 6 nM; KLK8 0.2 nM; KLK11 5.2 nM, KLK13 0.47 nM, KLK14 2.5 nM, plasmin 3.3 nM, thrombin 0.1 nM, tissue‐plasminogen activator (tPA) 0.1 nM, matriptase 1 nM, cathepsin L 2 nM) either in absence or prior preincubation in the presence of 100 μM of Fe^3+.
(§20) The proteases are first preincubated for 15 min with each compound (50 and 100 μM) or with DMSO (<2%, negative control) in a total volume of 85 μL of 50 mM Tris buffer, 1 M citrate, 0.05% Brij‐35, pH 7, 37 °C. The reaction is triggered by the appropriate substrate at the optimized concentration in 15 μL of 50 mM Tris buffer, 1 M citrate, 0.05% Brij‐35, pH 8 (H‐PFR‐AMC 100 μM; Boc‐VPR‐AMC 100 μM; Boc‐QAR‐AMC 100 μM; Meo‐Suc‐RPY‐AMC 150 μM, Z‐LR‐AMC 100 μM, Z‐GGR‐AMC 100 μM) and followed for 30 min at 37 °C. […] The release of the AMC fluorescent group is detected using the following wavelengths: λex = 360 nm and λem = 460 nm. The percent inhibition is calculated from Equation (1) where V 0 is the initial rate of the DMSO control, the initial rate in the presence of the inhibitor V i. (1) %inhibition=(1−(vi/v0))×100

KLK7 = KLK7 (Homo sapiens, UniProt P49862); assay: Selectivity screening, KLK7; details: read-out: percentage of inhibition KLK7
Protocol: as §18
(§21) Compounds were screened on KLKs using a BMG Fluostar microplate reader (black 96‐well microplates). […]
(§22) The proteases are first preincubated for 15 min with each compound (50 and 100 μM) or with DMSO (<2%, negative control) in a total volume of 85 μL of 50 mM Tris buffer, 1 M citrate, 0.05% Brij‐35, pH 7, 37 °C. […] The release of the AMC fluorescent group is detected using the following wavelengths: λex = 360 nm and λem = 460 nm. The percent inhibition is calculated from Equation (1) where V 0 is the initial rate of the DMSO control, the initial rate in the presence of the inhibitor V i. […]

KLK13 = biological target: T5, KLK13 (Homo sapiens, UniProt Q9UKR3); assay: Selectivity screening, KLK13; details: read-out: percentage of inhibition KLK13
T5 sequence (Q9UKR3 26-277 limits assumed): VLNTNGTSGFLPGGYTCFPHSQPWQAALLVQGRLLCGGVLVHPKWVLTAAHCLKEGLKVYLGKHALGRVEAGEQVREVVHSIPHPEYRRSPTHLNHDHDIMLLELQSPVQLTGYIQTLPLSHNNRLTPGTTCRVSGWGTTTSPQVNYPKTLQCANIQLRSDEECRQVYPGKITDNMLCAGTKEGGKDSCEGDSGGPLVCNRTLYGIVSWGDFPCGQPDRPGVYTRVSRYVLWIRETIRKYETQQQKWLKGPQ
Protocol: as §18, §19, §20

Plasmin = Plasmin (Homo sapiens, UniProt P00747); assay: Selectivity screening, plasmin; details: read-out: percentage of inhibition Plasmin
Protocol: All enzyme stocks were stored at −20 °C and purchased from R&D Systems as proenzymes (KLK6, KLK8, KLK13) or as mature and active forms (KLK5). Activation of KLK6, KLK8, and KLK13 is performed in optimized buffers. The activation reaction is initiated by Lysyl‐Endopeptidase at 2.5 mU mL^−1 (Wako Bioproducts). The activation reaction is stopped by diluting the enzyme to 0.5 μg mL^−1 in assay buffer (50 mM Tris, 1 M Citrate, 0.05% w/v Brij‐35, pH 8) to obtain an active enzyme stock. KLK1 was purchased from R & D Systems as pro‐KLK1. Activation of KLK1 is performed in 50 mM Tris‐HCl, 10 mM CaCl2, 150 mM NaCl, 0.05% Brij‐35, pH 7.5. […]
as §21, §22

KLK1 = KLK1 (Homo sapiens, UniProt P06870); assay: KLK1 fluorogenic enzyme inhibition assay (H-PFR-AMC); details: for inhibition at 50 µM: read-out: percentage of inhibition KLK1; for IC50: IC50 KLK1, 15 min preincubation at 37 °C, NI = not a hit (not above 50% inhibition at 50 μM)
Protocol: (§23) All enzyme stocks were stored at −20 °C and purchased from R&D Systems as proenzymes (KLK6, KLK8, KLK13) or as mature and active forms (KLK5). Activation of KLK6, KLK8, and KLK13 is performed in optimized buffers. The activation reaction is initiated by Lysyl‐Endopeptidase at 2.5 mU mL^−1 (Wako Bioproducts). The activation reaction is stopped by diluting the enzyme to 0.5 μg mL^−1 in assay buffer (50 mM Tris, 1 M Citrate, 0.05% w/v Brij‐35, pH 8) to obtain an active enzyme stock. KLK1 was purchased from R & D Systems as pro‐KLK1. Activation of KLK1 is performed in 50 mM Tris‐HCl, 10 mM CaCl2, 150 mM NaCl, 0.05% Brij‐35, pH 7.5. The activation reaction is initiated by bacterial thermolysin at 0.4 μg mL^−1 (Sigma‐Aldrich) and stopped by addition of 100 mM EDTA (Sigma‐Aldrich) to obtain an active KLK1 stock at the same concentration of 100 μg mL^−1. […] All enzyme stocks were stored at −20 °C. H‐PFR‐AMC (KLK1), Boc‐VPR‐AMC (KLK5, KLK8, KLK13), Boc‐QAR‐AMC (KLK6, Plasmin), substrates were purchased from Bachem. […] Plasmin (Sigma‐Aldrich) was purchased in mature and active form.
as §19, §20
(§24) The equation is entered in the Kaleidagraph 4.5 software for curve fitting f([I]) = % Inhibition, where [I] is the inhibitor concentration.
(§25) The mechanism of inhibition was determined by varying substrate and inhibitor concentrations, the type of inhibition and inhibition parameter (Ki or Ki′) are determined by Dixon's plots.

KLK8 = biological target: T6, KLK8 (Homo sapiens, UniProt O60259); assay: KLK8 fluorogenic enzyme inhibition assay (Boc-VPR-AMC); details: for inhibition at 50 µM: read-out: percentage of inhibition KLK8; for Ki′ KLK8 / Type of inhibition KLK8: Dixon plot, without Fe3+; for Ki′ KLK8: 100 μM substrate
T6 sequence (O60259 33-260): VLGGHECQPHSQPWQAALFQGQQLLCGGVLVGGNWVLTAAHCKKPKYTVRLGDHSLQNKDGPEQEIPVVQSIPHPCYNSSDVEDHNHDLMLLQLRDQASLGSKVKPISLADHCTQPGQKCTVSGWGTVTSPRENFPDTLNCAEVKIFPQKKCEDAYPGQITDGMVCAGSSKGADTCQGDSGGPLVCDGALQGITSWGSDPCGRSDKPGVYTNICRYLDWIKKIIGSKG
Protocol: as §23, §19, §20, §24, §25

[4] = UV–vis spectroscopy of Fe3+ chelation and complex stability; format: physicochemical; details: activity buffer pH 7.4, 1:1 ratio, t = 0 to 240 min
Protocol: UV–vis analysis of DFX was first performed to monitor the chelation process and the stability of the Fe^3+ complex over time at a 1:1 ratio, typically representing the duration of inhibition assay (30 min to 4 h) (Figure S1, Supporting Information). In these conditions of pH (7.4) and ligand‐to‐iron ratio and according to Steinhauser et al. the main species in solution is assigned to [Fe(DFX)2]^3−.^[ [49] ^] Indeed, we aimed to explore not only the chelation properties but also the impact of the chelated species on enzyme inhibition.
2.c. Chelation properties, iron interactions, and selectivity profiles of selected compounds targeting KLK activity.
Figure S2: Stability of the chelated species as monitored by spectrophotometry. UV/VIS spectra of molecules alone using activity buffer at pH 7.4 (in orange at 500 µM) or in the presence of FeCl3 (ratio of 1:1) at different times (t = 0 in red, 30 min in black, 60 min in blue and 240 min in green). The purple trace corresponds to iron only at 500 µM All data are representative of 2 independent experiments performed in duplicate. […]

[5] = tested on: targeted KLKs (KLK1, KLK6, KLK8); assay: Impact of preincubated compound (50 μM) and Fe3+ (100 μM) on targeted KLKs; format: biochemical, human; details: compound 50 μM preincubated with Fe3+ 100 μM
Protocol: Next, we evaluated the impact of preincubated mixtures of each compound at 50 μM and Fe^3+ at 100 μM to model an iron overload condition on targeted KLKs (Figure S5, Supporting Information).

KLK6 = KLK6 (Homo sapiens, UniProt Q92876); assay: KLK6 fluorogenic enzyme inhibition assay (Boc-QAR-AMC)
Protocol: as §23, §19, §20, §24, §25

Thrombin = Thrombin (Homo sapiens, UniProt P00734); assay: Selectivity screening, thrombin; format: biochemical; details: 50 μM compound, without Fe3+; read-out: percentage of inhibition Thrombin
[6] = Calcein transchelation (calcein release) assay; format: physicochemical; details: calcein 100 nM, 4 h at room temperature; estimation, assay not fully quantitative; read-out: Apparent affinity (pseudo‐affinity constant Kd for Fe3+)

T1 sequence (Q9Y5K2 31-254): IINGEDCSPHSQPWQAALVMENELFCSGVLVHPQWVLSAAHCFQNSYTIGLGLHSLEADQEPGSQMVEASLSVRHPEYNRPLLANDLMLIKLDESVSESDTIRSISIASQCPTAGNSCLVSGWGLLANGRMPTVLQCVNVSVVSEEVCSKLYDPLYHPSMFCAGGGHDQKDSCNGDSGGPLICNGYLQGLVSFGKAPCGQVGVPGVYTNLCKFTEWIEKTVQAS
Chain of KLK7 (P49862 30-253): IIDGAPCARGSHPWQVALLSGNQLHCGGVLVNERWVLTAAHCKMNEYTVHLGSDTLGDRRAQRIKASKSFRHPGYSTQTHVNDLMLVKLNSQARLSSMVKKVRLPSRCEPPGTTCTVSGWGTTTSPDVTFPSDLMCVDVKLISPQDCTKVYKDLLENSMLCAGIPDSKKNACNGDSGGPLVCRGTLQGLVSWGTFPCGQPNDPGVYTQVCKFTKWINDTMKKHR
Chain of KLK1 (P06870 25-262): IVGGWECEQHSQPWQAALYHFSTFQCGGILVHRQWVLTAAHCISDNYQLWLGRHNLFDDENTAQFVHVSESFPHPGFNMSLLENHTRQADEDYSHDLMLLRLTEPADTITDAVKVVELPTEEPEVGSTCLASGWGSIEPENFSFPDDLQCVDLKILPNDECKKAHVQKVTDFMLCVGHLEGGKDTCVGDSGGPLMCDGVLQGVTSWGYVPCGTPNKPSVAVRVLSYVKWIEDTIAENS
Chain of Cathepsin L (P07711 114-333, species assumed): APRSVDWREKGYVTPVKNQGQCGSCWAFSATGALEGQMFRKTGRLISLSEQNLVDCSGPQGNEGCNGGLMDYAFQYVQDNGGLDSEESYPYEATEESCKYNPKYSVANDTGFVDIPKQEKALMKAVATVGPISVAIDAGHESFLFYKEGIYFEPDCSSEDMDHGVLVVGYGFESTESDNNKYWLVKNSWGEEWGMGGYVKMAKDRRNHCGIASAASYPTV
Chain of Plasmin (P00747 581-810 limits assumed, species assumed): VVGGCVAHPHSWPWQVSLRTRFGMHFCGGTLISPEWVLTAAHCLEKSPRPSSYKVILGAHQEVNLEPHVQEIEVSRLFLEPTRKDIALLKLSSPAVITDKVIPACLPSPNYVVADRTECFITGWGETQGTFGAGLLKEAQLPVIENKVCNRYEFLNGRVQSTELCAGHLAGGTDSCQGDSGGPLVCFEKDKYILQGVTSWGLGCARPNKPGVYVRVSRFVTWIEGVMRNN
Chain of Plasmin (P00747 97-580 partner limits assumed, species assumed): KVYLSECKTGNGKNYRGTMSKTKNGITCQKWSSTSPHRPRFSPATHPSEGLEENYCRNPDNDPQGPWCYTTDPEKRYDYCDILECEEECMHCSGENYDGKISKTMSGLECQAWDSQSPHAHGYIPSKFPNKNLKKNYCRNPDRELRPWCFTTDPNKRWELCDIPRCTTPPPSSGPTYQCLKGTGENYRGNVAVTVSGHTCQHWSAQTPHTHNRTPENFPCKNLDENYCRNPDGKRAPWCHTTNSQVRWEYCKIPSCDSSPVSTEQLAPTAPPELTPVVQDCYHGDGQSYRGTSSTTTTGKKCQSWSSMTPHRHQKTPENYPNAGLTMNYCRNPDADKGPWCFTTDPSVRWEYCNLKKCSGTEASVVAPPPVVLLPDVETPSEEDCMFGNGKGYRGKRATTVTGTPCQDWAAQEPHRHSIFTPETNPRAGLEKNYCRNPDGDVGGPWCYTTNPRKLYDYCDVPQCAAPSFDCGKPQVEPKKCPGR

O=C(NC(Cc1c[nH]c2ccccc12)C(=O)O)c1ccc(-n2nc(-c3ccccc3O)nc2-c2ccccc2O)cc1 (stereo not drawn) [3lb]
inhibition at 50 µM (KLK4): 99.7%
inhibition at 50 µM (KLK11): 81.4%
inhibition at 50 µM (KLK14): 98.8%
inhibition at 50 µM (Cathepsin L): < 50%
viability at 24 h [1]: > 80%
viability at 24 h [2]: > 80%
reversibility and time dependence of inhibition [3]: reversible and time‐independent inhibitors
inhibition at 50 µM (KLK5): 98.2%
inhibition at 50 µM (KLK7): 90.5%
inhibition at 50 µM (KLK13): 98.1%
inhibition at 50 µM (Plasmin): 60.5%
inhibition at 50 µM (KLK1): 90.1%
IC50 (KLK8): 27.1 ± 1.1 µM
Ki (KLK8): 12 µM
inhibition at 50 µM (KLK8): 50.2%

CC(=O)Oc1ccccc1-c1nc(-c2ccccc2OC(C)=O)n(-c2ccc(C(=O)O)cc2)n1 [compound 22]
UV–vis spectrum in the presence of FeCl3 (iron complex formation) [4]: no changes in the absorption spectra
change of inhibitory activity in the presence of iron [5]: do not show an increased inhibitory activity in the presence of iron
IC50 (KLK1): > 50 µM
IC50 (KLK6): > 50 µM
IC50 (KLK8): > 50 µM

O=C(O)C1CCCN1C(=O)c1ccc(-n2nc(-c3ccccc3O)nc2-c2ccccc2O)cc1 (stereo not drawn) [3mb]
inhibition at 50 µM (KLK4): 77.3%
inhibition at 50 µM (KLK11): 76.7%
inhibition at 50 µM (KLK14): 89.7%
inhibition at 50 µM (Thrombin): 61.1%
Kd [6]: 0.029 ± 0.017 nM
viability at 24 h [1]: > 80%
viability at 24 h [2]: > 80%
reversibility and time dependence of inhibition [3]: reversible and time‐independent inhibitors
inhibition at 50 µM (KLK5): 95.1%
inhibition at 50 µM (KLK7): 70.1%
inhibition at 50 µM (KLK13): 85.2%
IC50 (KLK8): 25.9 ± 0.7 µM
Ki′ KLK8 (KLK8): 25 µM
Type of inhibition KLK8 (KLK8): uncompetitive inhibition
inhibition at 50 µM (KLK8): 63.1%

Oc1ccc(-n2nc(-c3ccccc3O)nc2-c2ccccc2O)cc1 [3r]
inhibition at 50 µM (KLK4): 84.3%
inhibition at 50 µM (KLK14): 62.2%
inhibition at 50 µM (Thrombin): < 50%
Kd [6]: 0.062 ± 0.014 nM
viability at 24 h [1]: > 80%
viability at 24 h [2]: > 80%
reversibility and time dependence of inhibition [3]: reversible and time‐independent inhibitors
inhibition at 50 µM (KLK5): 85.5%
inhibition at 50 µM (KLK13): 98.3%
Ki (KLK1): 29 µM
Type of inhibition KLK1 (KLK1; Dixon plot, without Fe3+): Noncompetitive
IC50 (KLK1): 16.4 ± 1.3 µM
inhibition at 50 µM (KLK1): 79.1%
inhibition at 50 µM (KLK6; read-out: percentage of inhibition KLK6): < 50%
IC50 (KLK8): > 50 µM

Oc1ccccc1-c1n[nH]c(-c2ccccc2O)n1 [3c]
Kd [6]: 0.032 ± 0.012 nM
change of inhibitory activity in the presence of iron [5]: significant higher inhibitory potency in the presence of Fe^3+ on all KLKs
IC50 (KLK8; IC50 KLK8, 15 min preincubation at 37 °C, NI = not a hit (not above 50% inhibition at 50 μM)): > 50 µM

O=C(O)c1cccc(-n2nc(-c3ccccc3O)nc2-c2ccccc2O)c1 [3b]
inhibition at 50 µM (KLK4): 83.8%
inhibition at 50 µM (KLK11): 90.9%
inhibition at 50 µM (KLK14): 95.1%
Kd [6]: 0.063 ± 0.011 nM
viability at 24 h [1]: > 80%
viability at 24 h [2]: > 80%
reversibility and time dependence of inhibition [3]: reversible and time‐independent inhibitors
inhibition at 50 µM (KLK5): 98.1%
inhibition at 50 µM (KLK7): 88.1%
IC50 (KLK8): 21.4 ± 0.4 µM
Ki′ KLK8 (KLK8): 18 µM
Type of inhibition KLK8 (KLK8): Uncompetitive
inhibition at 50 µM (KLK8): 62.1%
